Laboratory results published in ChEMBL document CHEMBL1909046, “DrugMatrix in vitro pharmacology data”.
Where a SMILES comes first, the peptide text is derived from it. Bridges are numbered along the chain shown (N, C = ends). [ ]: non-standard residue; d: D form. The star is where a group is joined. Ileψ(thiazoline)Cys = CC[C@H](C)[C@H](N)C1=N[C@H](C(=O)*)CS1; dOrn = NCCC[C@@H](N)C(=O)O

Legend:
[1] = molecular target: Mitogen-activated protein kinase 1 (Homo sapiens, UniProt P28482); assay: DRUGMATRIX: Protein Serine/Threonine Kinase, ERK2 enzyme inhibition (substrate: Myelin Basic Protein); set-up: species or system Escherichia coli; conditions: Not Active = under 50% inhibition at 10 µM
[2] = molecular target: Cytochrome P450 2C9 (Homo sapiens, UniProt P11712); conditions: bti-tn-5b1-4; note: in other assays of this panel Not Active means under 50% inhibition at 10 µM
[3] = molecular target: Insulin receptor (Rattus norvegicus, UniProt P15127); format: cell membranes, Wistar, Liver, Membrane; note: in other assays of this panel Not Active means under 50% inhibition at 10 µM
[4] = molecular target: T1, Caspase-1 (Homo sapiens, UniProt P29466); set-up: species or system Escherichia coli;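 note: Caspase-1 enzyme inhibition assay with a peptide substrate; in other assays of this panel Not Active means under 50% inhibition at 10 µM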
T1 sequence (P29466 whole entry): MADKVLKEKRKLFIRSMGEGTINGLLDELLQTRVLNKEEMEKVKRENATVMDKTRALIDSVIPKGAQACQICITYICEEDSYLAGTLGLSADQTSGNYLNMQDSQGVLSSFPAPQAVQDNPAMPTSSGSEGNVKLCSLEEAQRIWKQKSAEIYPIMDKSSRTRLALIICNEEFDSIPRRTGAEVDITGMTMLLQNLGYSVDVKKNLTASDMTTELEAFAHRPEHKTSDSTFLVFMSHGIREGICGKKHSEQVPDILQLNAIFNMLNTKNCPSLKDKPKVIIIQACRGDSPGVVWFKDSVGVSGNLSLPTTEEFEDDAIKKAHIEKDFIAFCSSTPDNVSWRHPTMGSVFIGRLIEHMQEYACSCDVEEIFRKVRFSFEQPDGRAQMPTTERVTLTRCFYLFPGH

[5] = DRUGMATRIX: Tumor Necrosis Factor (TNF), Non-Selective radioligand binding (ligand: [125I] TNF-alpha); format: cell membranes, Membrane; conditions: u-937; Not Active = under 50% inhibition at 10 µM
[6] = molecular target: T2, C-C chemokine receptor type 4 (Homo sapiens, UniProt P51679); format: cell membranes, Membrane; conditions: chem-1; note: in other assays of this panel Not Active means under 50% inhibition at 10 µM
T2 sequence (P51679 whole entry): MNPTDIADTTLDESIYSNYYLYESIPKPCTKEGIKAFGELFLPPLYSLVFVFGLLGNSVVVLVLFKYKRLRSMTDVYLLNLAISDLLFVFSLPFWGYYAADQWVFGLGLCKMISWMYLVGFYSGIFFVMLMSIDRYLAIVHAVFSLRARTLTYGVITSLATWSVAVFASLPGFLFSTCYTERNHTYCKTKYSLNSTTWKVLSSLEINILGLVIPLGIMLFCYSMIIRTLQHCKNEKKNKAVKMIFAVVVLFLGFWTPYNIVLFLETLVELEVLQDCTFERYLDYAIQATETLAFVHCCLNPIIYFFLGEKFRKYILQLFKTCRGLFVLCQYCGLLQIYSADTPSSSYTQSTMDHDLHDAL

[7] = molecular target: Melanocortin receptor 3 (Homo sapiens, UniProt P41968); format: cell membranes, Membrane; conditions: hek293; note: in other assays of this panel Not Active means under 50% inhibition at 10 µM
[8] = molecular target: Epidermal growth factor receptor (Homo sapiens, UniProt P00533); assay: DRUGMATRIX: Protein Tyrosine Kinase, EGF Receptor enzyme inhibition (substrate: Poly(Glu:Tyr)); format: cell-based, Insect cells; conditions: insect cells; Not Active = under 50% inhibition at 10 µM
[9] = molecular target: Kappa-type opioid receptor (Homo sapiens, UniProt P41145); assay: DRUGMATRIX: Opiate kappa (OP2, KOP) radioligand binding (ligand: [3H] Diprenorphine); format: cell membranes, HEK293, Membrane; conditions: hek293; Not Active = under 50% inhibition at 10 µM
[10] = molecular target: Receptor tyrosine-protein kinase erbB-2 (Homo sapiens, UniProt P04626); assay: biochemical; format: cell-based, Insect cells; conditions: insect cells
[11] = molecular target: T3, Muscarinic acetylcholine receptor M4 (Homo sapiens, UniProt P08173); format: cell membranes, CHO-K1, Membrane; conditions: cho-k1; note: in other assays of this panel Not Active means under 50% inhibition at 10 µM
T3 sequence (P08173 whole entry): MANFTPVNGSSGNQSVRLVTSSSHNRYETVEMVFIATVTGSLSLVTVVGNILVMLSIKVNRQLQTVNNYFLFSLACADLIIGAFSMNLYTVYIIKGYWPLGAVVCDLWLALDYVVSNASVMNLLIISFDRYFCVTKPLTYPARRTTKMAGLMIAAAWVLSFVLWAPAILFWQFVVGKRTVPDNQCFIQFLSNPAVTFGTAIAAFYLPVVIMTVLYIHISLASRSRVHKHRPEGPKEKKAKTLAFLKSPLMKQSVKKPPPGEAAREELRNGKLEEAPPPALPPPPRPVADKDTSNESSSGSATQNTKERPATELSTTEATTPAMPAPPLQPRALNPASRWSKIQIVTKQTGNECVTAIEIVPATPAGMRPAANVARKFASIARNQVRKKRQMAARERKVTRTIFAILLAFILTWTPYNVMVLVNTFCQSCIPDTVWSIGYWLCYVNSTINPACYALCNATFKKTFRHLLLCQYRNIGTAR

[12] = molecular target: 5-hydroxytryptamine receptor 1B (Rattus norvegicus, UniProt P28564); format: cell membranes, Wistar, Cerebral cortex, Membrane; note: in other assays of this panel Not Active means under 50% inhibition at 10 µM
[13] = DRUGMATRIX: GABAA, Chloride Channel, TBOB radioligand binding (ligand: [3H] TBOB); format: cell membranes, Rattus norvegicus, Wistar, Cerebral cortex, Membrane; conditions: Not Active = under 50% inhibition at 10 µM

Sequence of 5-hydroxytryptamine receptor 1B (P28564 whole entry): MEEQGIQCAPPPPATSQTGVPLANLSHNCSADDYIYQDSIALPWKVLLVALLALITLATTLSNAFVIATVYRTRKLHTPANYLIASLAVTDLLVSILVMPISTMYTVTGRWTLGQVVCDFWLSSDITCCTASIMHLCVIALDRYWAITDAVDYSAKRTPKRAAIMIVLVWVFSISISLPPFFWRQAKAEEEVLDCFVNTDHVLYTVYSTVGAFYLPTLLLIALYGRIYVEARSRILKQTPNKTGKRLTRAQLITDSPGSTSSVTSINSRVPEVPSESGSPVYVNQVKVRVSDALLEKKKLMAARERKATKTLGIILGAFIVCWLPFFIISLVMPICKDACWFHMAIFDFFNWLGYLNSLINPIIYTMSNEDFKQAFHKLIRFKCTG
Sequence of Mitogen-activated protein kinase 1 (P28482 whole entry): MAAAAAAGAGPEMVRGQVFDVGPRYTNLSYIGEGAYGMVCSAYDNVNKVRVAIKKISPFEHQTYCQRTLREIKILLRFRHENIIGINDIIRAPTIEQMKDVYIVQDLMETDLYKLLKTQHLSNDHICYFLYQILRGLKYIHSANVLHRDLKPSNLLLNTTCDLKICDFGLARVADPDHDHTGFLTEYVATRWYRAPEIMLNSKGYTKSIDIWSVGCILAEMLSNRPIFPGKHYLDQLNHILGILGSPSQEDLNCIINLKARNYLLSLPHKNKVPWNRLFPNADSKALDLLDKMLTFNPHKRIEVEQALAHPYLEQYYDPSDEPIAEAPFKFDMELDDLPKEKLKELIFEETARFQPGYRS
Sequence of Kappa-type opioid receptor (P41145 whole entry): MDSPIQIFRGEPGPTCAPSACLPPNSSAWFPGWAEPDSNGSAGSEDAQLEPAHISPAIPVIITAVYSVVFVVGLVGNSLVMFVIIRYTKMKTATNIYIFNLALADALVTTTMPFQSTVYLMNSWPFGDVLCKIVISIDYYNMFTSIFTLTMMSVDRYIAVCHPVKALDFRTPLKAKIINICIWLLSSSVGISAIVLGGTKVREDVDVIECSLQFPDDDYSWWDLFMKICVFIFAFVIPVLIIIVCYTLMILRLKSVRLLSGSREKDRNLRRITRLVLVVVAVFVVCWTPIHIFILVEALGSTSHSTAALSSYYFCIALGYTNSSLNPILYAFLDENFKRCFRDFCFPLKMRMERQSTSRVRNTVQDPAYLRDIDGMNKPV
Sequence of Receptor tyrosine-protein kinase erbB-2 (P04626 whole entry): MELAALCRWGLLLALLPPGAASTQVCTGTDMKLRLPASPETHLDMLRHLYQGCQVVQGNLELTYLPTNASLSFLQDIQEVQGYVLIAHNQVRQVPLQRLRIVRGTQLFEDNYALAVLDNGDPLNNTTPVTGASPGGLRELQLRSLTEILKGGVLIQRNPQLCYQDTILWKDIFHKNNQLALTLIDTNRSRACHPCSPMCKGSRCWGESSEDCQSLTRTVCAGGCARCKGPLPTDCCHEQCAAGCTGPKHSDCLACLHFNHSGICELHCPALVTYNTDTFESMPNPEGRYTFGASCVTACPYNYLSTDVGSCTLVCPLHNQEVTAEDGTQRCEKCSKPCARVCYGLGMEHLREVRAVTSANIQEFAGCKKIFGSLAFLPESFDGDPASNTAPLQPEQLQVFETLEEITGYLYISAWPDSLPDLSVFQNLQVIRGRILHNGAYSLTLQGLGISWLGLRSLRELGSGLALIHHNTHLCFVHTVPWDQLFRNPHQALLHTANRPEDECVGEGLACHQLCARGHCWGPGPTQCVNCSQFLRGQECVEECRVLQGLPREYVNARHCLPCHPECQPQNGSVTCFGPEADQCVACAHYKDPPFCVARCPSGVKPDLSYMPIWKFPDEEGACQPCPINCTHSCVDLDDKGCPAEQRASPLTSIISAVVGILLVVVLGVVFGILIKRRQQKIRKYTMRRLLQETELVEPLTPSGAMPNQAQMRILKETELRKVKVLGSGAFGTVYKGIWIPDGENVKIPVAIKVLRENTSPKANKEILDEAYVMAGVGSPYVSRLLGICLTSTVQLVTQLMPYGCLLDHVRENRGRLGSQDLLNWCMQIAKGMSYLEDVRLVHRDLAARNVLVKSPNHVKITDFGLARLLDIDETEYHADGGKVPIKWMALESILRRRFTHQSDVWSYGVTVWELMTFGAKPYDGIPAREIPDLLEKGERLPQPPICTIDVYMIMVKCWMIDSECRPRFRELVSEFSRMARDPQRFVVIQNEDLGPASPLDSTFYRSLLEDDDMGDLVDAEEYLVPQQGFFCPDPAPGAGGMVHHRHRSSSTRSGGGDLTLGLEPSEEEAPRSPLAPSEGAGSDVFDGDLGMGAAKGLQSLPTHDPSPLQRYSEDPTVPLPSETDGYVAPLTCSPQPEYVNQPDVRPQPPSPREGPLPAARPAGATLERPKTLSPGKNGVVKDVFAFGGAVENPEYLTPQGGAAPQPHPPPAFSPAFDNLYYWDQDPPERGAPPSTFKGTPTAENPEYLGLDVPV
Sequence of Epidermal growth factor receptor (P00533 whole entry): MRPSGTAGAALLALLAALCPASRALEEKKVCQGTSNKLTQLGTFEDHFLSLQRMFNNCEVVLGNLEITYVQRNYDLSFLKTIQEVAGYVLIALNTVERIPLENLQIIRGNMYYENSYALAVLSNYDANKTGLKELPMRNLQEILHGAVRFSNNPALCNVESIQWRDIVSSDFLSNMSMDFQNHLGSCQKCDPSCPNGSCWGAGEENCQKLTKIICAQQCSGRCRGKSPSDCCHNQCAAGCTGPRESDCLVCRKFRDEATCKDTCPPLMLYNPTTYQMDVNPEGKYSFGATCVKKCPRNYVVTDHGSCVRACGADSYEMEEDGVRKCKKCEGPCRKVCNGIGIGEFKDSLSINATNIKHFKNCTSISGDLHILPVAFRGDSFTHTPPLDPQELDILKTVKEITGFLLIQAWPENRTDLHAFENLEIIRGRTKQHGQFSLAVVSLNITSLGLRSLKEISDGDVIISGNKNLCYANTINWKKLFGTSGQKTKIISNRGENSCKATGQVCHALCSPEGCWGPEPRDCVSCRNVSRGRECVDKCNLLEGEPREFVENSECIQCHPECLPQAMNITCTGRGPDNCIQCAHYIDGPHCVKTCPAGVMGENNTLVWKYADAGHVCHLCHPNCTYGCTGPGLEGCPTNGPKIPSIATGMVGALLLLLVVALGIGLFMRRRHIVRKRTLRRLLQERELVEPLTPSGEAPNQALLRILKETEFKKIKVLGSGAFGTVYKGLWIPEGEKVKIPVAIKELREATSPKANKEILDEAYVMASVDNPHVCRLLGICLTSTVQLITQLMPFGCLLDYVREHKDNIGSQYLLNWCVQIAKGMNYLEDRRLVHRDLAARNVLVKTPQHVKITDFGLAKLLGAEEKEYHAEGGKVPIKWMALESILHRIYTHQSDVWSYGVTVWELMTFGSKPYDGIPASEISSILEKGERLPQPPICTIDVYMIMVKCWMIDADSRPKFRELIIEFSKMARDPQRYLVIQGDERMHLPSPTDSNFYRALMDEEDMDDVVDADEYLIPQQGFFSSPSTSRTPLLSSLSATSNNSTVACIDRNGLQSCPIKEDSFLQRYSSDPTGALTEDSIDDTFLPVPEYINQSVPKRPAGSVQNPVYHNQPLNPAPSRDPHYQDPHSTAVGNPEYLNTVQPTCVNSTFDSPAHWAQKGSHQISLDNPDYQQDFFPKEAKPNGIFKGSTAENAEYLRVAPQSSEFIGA
Sequence of Cytochrome P450 2C9 (P11712 whole entry): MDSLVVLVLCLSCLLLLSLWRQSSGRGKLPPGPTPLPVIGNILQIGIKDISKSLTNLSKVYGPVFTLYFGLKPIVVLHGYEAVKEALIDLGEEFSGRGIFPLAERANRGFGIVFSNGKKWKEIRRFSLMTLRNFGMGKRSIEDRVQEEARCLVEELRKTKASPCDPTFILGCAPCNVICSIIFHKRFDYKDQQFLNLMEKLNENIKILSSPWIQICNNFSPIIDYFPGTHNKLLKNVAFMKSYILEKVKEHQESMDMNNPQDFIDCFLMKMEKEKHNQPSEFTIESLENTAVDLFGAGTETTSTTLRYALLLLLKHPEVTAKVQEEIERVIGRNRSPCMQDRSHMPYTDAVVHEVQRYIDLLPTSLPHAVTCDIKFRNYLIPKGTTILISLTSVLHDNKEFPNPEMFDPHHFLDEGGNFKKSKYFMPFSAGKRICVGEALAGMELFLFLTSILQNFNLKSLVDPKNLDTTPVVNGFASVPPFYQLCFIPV
Sequence of Melanocortin receptor 3 (P41968 whole entry): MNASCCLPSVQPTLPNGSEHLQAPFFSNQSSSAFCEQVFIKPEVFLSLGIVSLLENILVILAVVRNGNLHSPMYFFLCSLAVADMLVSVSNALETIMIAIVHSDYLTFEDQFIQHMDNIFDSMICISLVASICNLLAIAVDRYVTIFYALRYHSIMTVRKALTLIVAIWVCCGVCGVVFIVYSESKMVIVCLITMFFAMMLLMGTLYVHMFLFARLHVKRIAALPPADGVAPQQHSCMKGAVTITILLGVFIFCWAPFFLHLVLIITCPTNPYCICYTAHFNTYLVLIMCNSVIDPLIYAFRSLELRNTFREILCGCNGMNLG

CC(/C=C1\SC(=S)N(CC(=O)O)C1=O)=C\c1ccccc1
Not Active: IC50 [1] | IC50 [2] | Ki [2] | IC50 [3] | IC50 [4] | IC50 [5] | Ki [5] | IC50 [6] | IC50 [7] | IC50 [8] | IC50 [9] | IC50 [10] | IC50 [11] | IC50 [12] | IC50 [13] | Ki [13]

CCCCCCCCCc1ccc(O)cc1 [4-NONYLPHENOL]
Not Active: IC50 [1] | IC50 [2] | Ki [2] | IC50 [3] | IC50 [4] | IC50 [5] | Ki [5] | IC50 [6] | IC50 [7] | IC50 [8] | IC50 [10] | IC50 [11] | IC50 [12] | IC50 [13] | Ki [13]

Cc1[nH]cnc1CN1CCc2c(c3ccccc3n2C)C1=O [ALOSETRON]
Not Active: IC50 [1] | IC50 [2] | Ki [2] | IC50 [3] | IC50 [4] | IC50 [5] | Ki [5] | IC50 [6] | IC50 [7] | IC50 [8] | IC50 [9] | IC50 [10] | IC50 [11] | IC50 [12] | IC50 [13] | Ki [13]

CC1(C)S[C@@H]2[C@H](NC(=O)[C@H](N)c3ccc(O)cc3)C(=O)N2[C@H]1C(=O)O [AMOXICILLIN]
Not Active: IC50 [1] | IC50 [2] | Ki [2] | IC50 [3] | IC50 [4] | IC50 [5] | Ki [5] | IC50 [6] | IC50 [7] | IC50 [8] | IC50 [9] | IC50 [10] | IC50 [11] | IC50 [12] | IC50 [13] | Ki [13]

N=C(N)NCCCCNC(=N)N.O=S(=O)(O)O [ARCAINE SULFATE]
Not Active: IC50 [1] | IC50 [2] | Ki [2] | IC50 [3] | IC50 [4] | IC50 [5] | Ki [5] | IC50 [6] | IC50 [7] | IC50 [8] | IC50 [9] | IC50 [10] | IC50 [11] | IC50 [12] | IC50 [13] | Ki [13]

CC[C@H](C)[C@H](N)C1=N[C@H](C(=O)N[C@@H](CC(C)C)C(=O)N[C@H](CCC(=O)O)C(=O)N[C@H](C(=O)N[C@H]2CCCCNC(=O)[C@H](CC(N)=O)NC(=O)[C@@H](CC(=O)O)NC(=O)[C@H](Cc3cnc[nH]3)NC(=O)[C@@H](Cc3ccccc3)NC(=O)[C@H]([C@@H](C)CC)NC(=O)[C@@H](CCCN)NC2=O)[C@@H](C)CC)CS1 [BACITRACIN] ({Ileψ(thiazoline)Cys}-L[dE]IK[dOrn]I[dF]H[dD]N; lactam 4-C)
Not Active: IC50 [1] | IC50 [3] | IC50 [4] | IC50 [5] | Ki [5] | IC50 [6] | IC50 [7] | IC50 [9] | IC50 [10] | IC50 [11] | IC50 [13] | Ki [13]

CC(=O)O[C@]1(C(C)=O)CC[C@H]2[C@@H]3C=C(Cl)C4=CC(=O)CC[C@]4(C)[C@H]3CC[C@@]21C [CHLORMADINONE ACETATE]
Not Active: IC50 [1] | IC50 [2] | Ki [2] | IC50 [3] | IC50 [4] | IC50 [5] | Ki [5] | IC50 [6] | IC50 [7] | IC50 [8] | IC50 [9] | IC50 [10] | IC50 [11] | IC50 [12] | IC50 [13] | Ki [13]

C[C@]12CCC(=O)C=C1CC[C@@H]1[C@@H]2C(=O)C[C@@]2(C)[C@H]1CC[C@]2(O)C(=O)CO [CORTISONE]
Not Active: IC50 [1] | IC50 [2] | Ki [2] | IC50 [3] | IC50 [4] | IC50 [5] | Ki [5] | IC50 [6] | IC50 [7] | IC50 [8] | IC50 [9] | IC50 [10] | IC50 [11] | IC50 [12] | IC50 [13] | Ki [13]

CC(=O)OCC(=O)[C@@]1(OC(C)=O)[C@@H](C)C[C@H]2[C@@H]3C[C@H](F)C4=CC(=O)C=C[C@]4(C)[C@@]3(F)[C@@H](O)C[C@@]21C [DIFLORASONE DIACETATE]
Not Active: IC50 [1] | IC50 [2] | Ki [2] | IC50 [3] | IC50 [4] | IC50 [5] | Ki [5] | IC50 [6] | IC50 [7] | IC50 [8] | IC50 [9] | IC50 [10] | IC50 [11] | IC50 [12] | IC50 [13] | Ki [13]

CN1CCC[C@H]1c1cccnc1 [NICOTINE]
Not Active: IC50 [1] | IC50 [3] | IC50 [4] | IC50 [5] | Ki [5] | IC50 [6] | IC50 [7] | IC50 [8] | IC50 [9] | IC50 [10] | IC50 [11] | IC50 [12] | IC50 [13] | Ki [13]

Oc1cccc2cccnc12 [OXYQUINOLINE]
Not Active: IC50 [1] | IC50 [3] | IC50 [4] | IC50 [5] | Ki [5] | IC50 [6] | IC50 [7] | IC50 [8] | IC50 [9] | IC50 [10] | IC50 [11] | IC50 [12] | IC50 [13] | Ki [13]
